Experimental data taken from ChEMBL document CHEMBL1130625, “Synthesis and antibacterial activity of novel 7-(3-substituted-3 or 4-trifluoromethyl-1-pyrrolidinyl)-8-methoxyfluoroquinolones” (1998).

Key:
Citrobacter freundii [1] = test: Compound was tested for antibacterial activity against gram negative Citrobacter freundii KP-29; format: functional; settings: Citrobacter freundii; read-out: MIC
Staphylococcus aureus [2] = test: Compound was tested for antibacterial activity against gram positive Staphylococcus aureus FDA 209P JC-1; format: functional; settings: Staphylococcus aureus; read-out: MIC
Enterobacter cloacae = test: Compound was tested for antibacterial activity against gram negative Enterobacter cloacae Nek39; format: functional; settings: Enterobacter cloacae; read-out: MIC
Proteus vulgaris [3] = test: Compound was tested for antibacterial activity against gram negative Proteus vulgaris No.33; format: functional; settings: Proteus vulgaris; read-out: MIC
Enterococcus faecalis = test: Compound was tested for antibacterial activity against gram positive Enterococcus faecalis 1373; format: functional; settings: Enterococcus faecalis; read-out: MIC
Pseudomonas aeruginosa [4] = test: Compound was tested for antibacterial activity against gram negative Pseudomonas aeruginosa K-13; format: functional; settings: Pseudomonas aeruginosa; read-out: MIC
Klebsiella pneumoniae [5] = test: Compound was tested for antibacterial activity against gram negative Klebsiella pneumoniae KC-1; format: functional; settings: Klebsiella pneumoniae; read-out: MIC
Staphylococcus aureus [6] = test: Compound was tested for antibacterial activity against gram positive Staphylococcus aureus KP-90-3; format: functional; settings: Staphylococcus aureus; read-out: MIC
Proteus vulgaris [7] = test: Compound was tested for antibacterial activity against gram negative Proteus vulgaris KS-134; format: functional; settings: Proteus vulgaris; read-out: MIC
Streptococcus pyogenes = test: Compound was tested for antibacterial activity against gram positive Streptococcus pyogenes cook; settings: Streptococcus pyogenes; read-out: MIC
Burkholderia cepacia = test: Compound was tested for antibacterial activity against gram negative Burkholderia cepacia 23; format: functional; settings: Burkholderia cepacia; read-out: MIC
Citrobacter freundii [8] = test: Compound was tested for antibacterial activity against gram negative Citrobacter freundii No.7; format: functional; settings: Citrobacter freundii; read-out: MIC
Staphylococcus aureus [9] = test: Compound was tested for antibacterial activity against gram positive Staphylococcus aureus JS-1; format: functional; settings: Staphylococcus aureus; read-out: MIC
Staphylococcus aureus [10] = test: Compound was tested for antibacterial activity against gram positive Staphylococcus aureus smith; format: functional
Escherichia coli [11] = test: Compound was tested for antibacterial activity against gram negative Escherichia coli CSH2/RE45; format: functional; settings: Escherichia coli; read-out: MIC
Pseudomonas aeruginosa [12] = test: Compound was tested for antibacterial activity against gram negative Pseudomonas aeruginosa PAO1; format: functional; settings: Pseudomonas aeruginosa; read-out: MIC
Escherichia coli [13] = test: Compound was tested for antibacterial activity against gram negative Escherichia coli ML4707; format: functional; settings: Escherichia coli; read-out: MIC
Klebsiella pneumoniae [14] = test: Compound was tested for antibacterial activity against gram negative Klebsiella pneumoniae No.42; format: functional; settings: Klebsiella pneumoniae; read-out: MIC
Proteus mirabilis = test: Compound was tested for antibacterial activity against gram negative Proteus mirabilis JY-10; format: functional; settings: Proteus mirabilis; read-out: MIC
Escherichia coli [15] = test: Compound was tested for antibacterial activity against gram negative Escherichia coli CSH2/RK1; format: functional; settings: Escherichia coli; read-out: MIC
Pseudomonas aeruginosa [16] = test: Compound was tested for antibacterial activity against gram negative Pseudomonas aeruginosa KP-254; format: functional; settings: Pseudomonas aeruginosa; read-out: MIC
Klebsiella oxytoca = test: Compound was tested for antibacterial activity against gram negative Klebsiella oxytoca GN 10650; format: functional; settings: Klebsiella oxytoca; read-out: MIC
Serratia marcescens = test: Compound was tested for antibacterial activity against gram negative Serratia marcescens No.16-2; format: functional; settings: Serratia marcescens; read-out: MIC
Pseudomonas aeruginosa [17] = test: Compound was tested for antibacterial activity against gram negative Pseudomonas aeruginosa AK109; format: functional; settings: Pseudomonas aeruginosa; read-out: MIC
Escherichia coli [18] = test: Compound was tested for antibacterial activity against gram negative Escherichia coli NIHJ JC-2; format: functional; settings: Escherichia coli; read-out: MIC
[19] = system: Acinetobacter calcoaceticus; test: Compound was tested for antibacterial activity against gram negative Acinetobacter calcoaceticus No.4; format: functional; settings: Acinetobacter calcoaceticus; read-out: MIC

| Compound | MIC (Citrobacter freundii [1]) | MIC (Staphylococcus aureus [2]) | MIC (Enterobacter cloacae) | MIC (Proteus vulgaris [3]) | MIC (Enterococcus faecalis) | MIC (Pseudomonas aeruginosa [4]) | MIC (Klebsiella pneumoniae [5]) | MIC (Staphylococcus aureus [6]) | MIC (Proteus vulgaris [7]) | MIC (Streptococcus pyogenes) | MIC (Burkholderia cepacia) | MIC (Citrobacter freundii [8]) | MIC (Staphylococcus aureus [9]) | MIC (Staphylococcus aureus [10]) | MIC (Escherichia coli [11]) | MIC (Pseudomonas aeruginosa [12]) | MIC (Escherichia coli [13]) | MIC (Klebsiella pneumoniae [14]) | MIC (Proteus mirabilis) | MIC (Escherichia coli [15]) | further results |
| --- | --- | --- | --- | --- | --- | --- | --- | --- | --- | --- | --- | --- | --- | --- | --- | --- | --- | --- | --- | --- | --- |
| COc1c(N2C[C@H](CN)[C@H](C(F)(F)F)C2)c(F)cc2c(=O)c(C(=O)O)cn(C3CC3)c12.Cl | 6.25 µg/mL | 0.025 µg/mL | 0.39 µg/mL | 0.05 µg/mL | 0.05 µg/mL | 3.13 µg/mL | 0.05 µg/mL | 0.2 µg/mL | 25 µg/mL | ≤ 0.006 µg/mL | 1.56 µg/mL | 0.78 µg/mL | ≤ 0.006 µg/mL | ≤ 0.006 µg/mL | 0.2 µg/mL | 0.78 µg/mL | 0.025 µg/mL | 0.1 µg/mL | 0.025 µg/mL | 0.2 µg/mL | MIC (Pseudomonas aeruginosa [16]): 50 µg/mL; MIC (Klebsiella oxytoca): 0.05 µg/mL; MIC (Serratia marcescens): 0.78 µg/mL; MIC (Pseudomonas aeruginosa [17]): 0.78 µg/mL; MIC (Escherichia coli [18]): 0.05 µg/mL; MIC [19]: 0.1 µg/mL |
| COc1c(N2CC[C@@](CN)(C(F)(F)F)C2)c(F)cc2c(=O)c(C(=O)O)cn(C3CC3)c12.Cl | > 12.5 µg/mL | 0.2 µg/mL | 12.5 µg/mL | 3.13 µg/mL | 0.78 µg/mL | > 12.5 µg/mL | 1.56 µg/mL | 6.25 µg/mL | > 12.5 µg/mL | 0.78 µg/mL | 3.13 µg/mL | > 12.5 µg/mL | 0.1 µg/mL | 0.05 µg/mL | > 12.5 µg/mL | > 12.5 µg/mL | 0.05 µg/mL | 6.25 µg/mL | 0.78 µg/mL | > 12.5 µg/mL | MIC (Pseudomonas aeruginosa [16]): > 12.5 µg/mL; MIC (Klebsiella oxytoca): 6.25 µg/mL; MIC (Serratia marcescens): > 12.5 µg/mL; MIC (Pseudomonas aeruginosa [17]): > 12.5 µg/mL; MIC (Escherichia coli [18]): 3.13 µg/mL; MIC [19]: 1.56 µg/mL |
| COc1c(N2C[C@@H](CN)[C@H](C)C2)c(F)cc2c(=O)c(C(=O)O)cn(C3CC3)c12.Cl | 12.5 µg/mL | 0.013 µg/mL | 0.39 µg/mL | 0.1 µg/mL | 0.05 µg/mL | 6.25 µg/mL | 0.1 µg/mL | 0.2 µg/mL | 50 µg/mL | ≤ 0.006 µg/mL | 1.56 µg/mL | 0.39 µg/mL | ≤ 0.006 µg/mL | ≤ 0.006 µg/mL | 0.39 µg/mL | 0.78 µg/mL | 0.025 µg/mL | 0.1 µg/mL | 0.05 µg/mL | 0.39 µg/mL | MIC (Pseudomonas aeruginosa [16]): 100 µg/mL; MIC (Klebsiella oxytoca): 0.1 µg/mL; MIC (Serratia marcescens): 0.39 µg/mL; MIC (Pseudomonas aeruginosa [17]): 0.78 µg/mL; MIC (Escherichia coli [18]): 0.05 µg/mL; MIC [19]: 0.2 µg/mL |
| COc1c(N2C[C@@H](N)[C@H](C(F)(F)F)C2)c(F)cc2c(=O)c(C(=O)O)cn(C3CC3)c12.O=C(O)C(F)(F)F | 100 µg/mL | 0.1 µg/mL | 3.13 µg/mL | 0.39 µg/mL | 0.39 µg/mL | 25 µg/mL | 0.39 µg/mL | 3.13 µg/mL | 100 µg/mL | 0.39 µg/mL | 1.56 µg/mL | 3.13 µg/mL | 0.05 µg/mL | 0.05 µg/mL | 3.13 µg/mL | 3.13 µg/mL | 0.05 µg/mL | 0.39 µg/mL | 0.2 µg/mL | 3.13 µg/mL | MIC (Pseudomonas aeruginosa [16]): > 100 µg/mL; MIC (Klebsiella oxytoca): 0.39 µg/mL; MIC (Serratia marcescens): 3.13 µg/mL; MIC (Pseudomonas aeruginosa [17]): 6.25 µg/mL; MIC (Escherichia coli [18]): 0.39 µg/mL; MIC [19]: 0.2 µg/mL |
